Data from patent US12171229B2, “Heteroaryl-triazole and heteroaryl-tetrazole compounds as pesticides” (BAYER AKTIENGESELLSCHAFT, priority 2018, dated 2024).

Experiments:
Assay type in all cases: in vivo
Ctenocephalides felis = Ctenocephalides felis oral test; conditions: 48 h, 100 ppm in cattle blood, after 2 days, adult unfed cat fleas
Summary of the method: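 Compound dissolved in DMSO and diluted in cattle blood to test concentration, offered to ~20 unfed adult fleas via a parafilm-sealed blood chamber held at 37° C (fleas at room temperature). Kill recorded at 2 days as % mortality.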

[1] = tested on: Culex quinquefasciatus strain P00; assay: Culex quinquefasciatus test (CULXFA surface treatment & contact assay); conditions: 24 hours after contact, read-out: efficacy (mortality); for mortality at 4 mg/m2: surface concentration 4 mg/m^2, exposure 30 minutes; for mortality at 20 mg/m2: surface concentration 20 mg/m^2, exposure 30 minutes
Summary of the method: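 Compound dissolved in acetone (2 mg/ml) with 2000 ppm rapeseed oil methyl ester, applied to glazed tile and dried; adult C. quinquefasciatus strain P00 exposed to surface for 30 minutes. Mortality (%) scored 24 hours after contact.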

Boophilus microplus = Boophilus microplus injection test; conditions: Rhipicephalus microplus, 168 h; 20 μg/animal injected into the abdomen; adult engorged female ticks; egg deposition after 7 days; read-out: efficacy (infertile eggs)
Summary of the method: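 Efficacy, from 0% (all eggs fertile) to 100% (all infertile), was scored on eggs laid by five engorged adult females. Each female was injected intra-abdominally with 1 μl of compound solution in DMSO. Fertile egg laying was checked at 7 days, with uncertain eggs kept until hatching at about 42 days.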

[2] = tested on: cattle ticks (Boophilus microplus) strane Parhurst, SP-resistant; assay: Boophilus microplus dip test; conditions: Rhipicephalus microplus, 168 h, engorged adult female cattle ticks, egg deposition after 7 days, read-out: efficacy (infertile eggs)
Experimental: Boophilus microplus—Dip Test
Test animal: cattle ticks (Boophilus microplus) strane Parhurst, SP-resistant
Solvent: dimethyl sulfoxide
To produce a suitable preparation of active compound, 10 mg of active compound are dissolved in 0.5 ml solvent, and the concentrate is diluted with water to the desired concentration.
This compound solution is pipetted into tubes. 8-10 engorged, adult, female cattle ticks (Boophilus microplus) are placed in perforated tubes. These tubes are immersed in the aqueous compound solution until the ticks are completely moistened. After the liquid has drained off, the ticks are transferred to a filter paper in a plastic tray and stored in a climate chamber.
After 7 days egg deposition of fertile eggs is monitored. Eggs where fertility is not visible are stored in a climate chamber till hatching after about 42 days. An efficacy of 100% means all eggs are infertile; 0% means all eggs are fertile.

Phaedon cochleariae = Phaedon cochleariae spray test; conditions: foliar, 168 h, after 7 days, larvae on Chinese cabbage leaf disks
Experimental: Phaedon Cochleariae—Spray Test
(§1) To produce a suitable preparation of active compound, 1 part by weight of active compound is mixed with the stated amount of solvents and is diluted with water, containing an emulsifier concentration of 1000 ppm, to the desired concentration. Further test concentrations are prepared by dilution with emulsifier containing water.
Chinese cabbage (Brassica pekinensis) leaf disks are sprayed with a preparation of the active ingredient of the desired concentration. Once dry, the leaf disks are infested with mustard beetle larvae (Phaedon cochleariae).
After 7 days mortality in % is determined. 100% means all beetle larvae have been killed and 0% means none of the beetle larvae have been killed.

Myzus persicae = Myzus persicae spray test; conditions: foliar, 120 h, after 5 days, Chinese cabbage leaf disks
Summary of the method: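 Percent kill was recorded 5 days after spraying. Test solutions, prepared with solvent and diluted in 1000 ppm emulsifier water, were applied to Brassica pekinensis leaf disks carrying mixed-instar green peach aphids.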

Rhipicephalus sanguineus = Rhipicephalus sanguineus in-vitro contact test, adult brown dog ticks; conditions: 5 μg/cm^2 (=500 g/ha), after 48 hours, read-out: efficacy (ticks dead or moribund)
Experimental: Rhipicephalus Sanguineus—In-Vitro Contact Tests with Adult Brown Doe Ticks
9 mg compound is solved in 1 ml acetone and diluted with acetone to the desired concentration. 250 μl of the test solution is filled in 25 ml glass test tubes and homogeneously distributed on the inner walls by rotation and tilting on a shaking device (2 h at 30 rpm). With a compound concentration of 900 ppm, an inner surface of 44.7 cm^2 and a homogeneous distribution, a dose of 5 μg/cm^2 is achieved.
After the solvent has evaporated, each test tube is filled with 5-10 adult brown dog ticks (Rhipicephalus sanguineus), closed with a perforated lid and incubated in a lying position at room temperature and relative humidity. After 48 hours efficacy is determined. The ticks are patted on the ground of the tubes and are incubated on a heating plate at 45-50° C. for at most 5 minutes. Immotile or uncoordinated moving ticks, which are not able to escape the heat by climbing upwards, are marked as dead or moribund.
An efficacy of 100% means all ticks are dead or moribund; 0% means no ticks are dead or moribund.

Nilaparvata lugens = Nilaparvata lugens spray test; conditions: 336 h, after 14 days, rice plants
Summary of the method: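 Rice plants sprayed with compound diluted in water with 1000 ppm emulsifier, then infested with brown planthopper. Mortality in % scored after 14 days (100% = all killed).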

Tetranychus urticae = Tetranychus urticae spray test (OP-resistant); conditions: foliar, 144 h, after 6 days, French bean leaf disks
Experimental: Tetranychus urticae—Spray Test (OP-Resistant)
as §1
French bean (Phaseolus vulgaris) leaf disks infected with all instars of the two spotted spidermite (Tetranychus urticae), are sprayed with a preparation of the active ingredient of the desired concentration.
After 6 days mortality in % is determined. 100% means all spider mites have been killed and 0% means none of the spider mites have been killed.

| SMILES | mortality at 100 ppm (Ctenocephalides felis) [%] | mortality at 4 mg/m2 [1] [%] | mortality at 20 mg/m2 [1] [%] | pest or weed control at 0.02 mg (Boophilus microplus) [%] | pest or weed control at 100 ppm [2] [%] | mortality at 500 g/ha (Phaedon cochleariae) [%] | mortality at 500 g/ha (Myzus persicae) [%] | pest or weed control at 5 µg/cm2 (Rhipicephalus sanguineus) [%] | mortality at 100 g/ha (Myzus persicae) [%] | mortality at 500 g/ha (Nilaparvata lugens) [%] | mortality at 500 g/ha (Tetranychus urticae) [%] |
| --- | --- | --- | --- | --- | --- | --- | --- | --- | --- | --- | --- |
| CC(c1ncnn1-c1ccc(C#N)cn1)N(CC1CC1)C(=O)c1cc(Cl)cc(C(F)(F)F)c1 (stereo not drawn) [Example I-007] | 100 | 90 to 100 | 90 to 100 | 100 | 80 | 100 | – | – | – | – | – |
| C[C@H](NC(=O)c1cc(Cl)cc(C(F)(F)F)c1)c1ncnn1-c1ccc(C#N)cn1 [Example I-009] | 100 | 90 to 100 | – | 100 | 100 | – | 90 | 100 | – | – | – |
| C[C@H](NC(=O)c1cc(Cl)cc(C(F)(F)F)c1)c1ncnn1-c1ncc(Cl)cc1F [Example I-013] | 100 | 90 to 100 | 90 to 100 | 100 | 100 | – | 100 | – | 90 | – | – |
| C[C@H](NC(=O)c1cc(Cl)cc(C(F)(F)F)c1)c1ncnn1-c1cc(C#N)ccn1 [Example I-015] | 100 | 90 to 100 | 90 to 100 | 100 | – | – | 100 | 100 | 100 | – | – |
| C[C@H](NC(=O)c1cc(F)cc(C#N)c1)c1ncnn1-c1ccc(C#N)cn1 [Example I-018] | 100 | 90 to 100 | 90 to 100 | 100 | – | – | – | – | – | – | – |
| C[C@H](NC(=O)c1cc(F)cc(C(F)(F)F)c1)c1ncnn1-c1ccc(C#N)cn1 [Example I-019] | 100 | 90 to 100 | 90 to 100 | 100 | 100 | – | – | – | – | – | – |
| C[C@H](NC(=O)c1cc(Cl)cc(C(F)(F)F)c1)c1ncnn1-c1ccc([N+](=O)[O-])cn1 [Example I-028] | 100 | 90 to 100 | 90 to 100 | 100 | 100 | – | – | – | – | – | – |
| C[C@H](NC(=O)c1cc(Cl)cc(C(F)(F)F)c1)c1ncnn1-c1ccc(NC(=O)C2CC2)cn1 [Example I-034, 3-chloro-N-[(1S)-1-(1-{5-[(cyclopropylcarbonyl)amino]pyridin-2-yl}-1H-1,2,4-triazol-5-yl)ethyl]-5-(trifluoromethyl)benzamide] | 100 | 90 to 100 | 90 to 100 | 100 | – | – | 100 | – | 100 | 100 | – |
| C[C@H](NC(=O)c1cc(Cl)cc(OC(F)(F)F)c1)c1ncnn1-c1ccc(C#N)cn1 [Example I-041, 3-chloro-N-{(1S)-1-[1-(5-cyanopyridin-2-yl)-1H-1,2,4-triazol-5-yl]ethyl}-5-(trifluoromethoxy)benzamide] | 100 | 90 to 100 | 90 to 100 | 100 | 100 | – | – | – | – | 90 | – |
| C[C@H](NC(=O)c1cc(Cl)cc(SC(F)(F)F)c1)c1ncnn1-c1ccc(C#N)cn1 [Example I-042] | 100 | 90 to 100 | 90 to 100 | 100 | 80 | – | – | – | – | – | 90 |
| C[C@H](NC(=O)c1cc(Cl)cc(Br)c1)c1ncnn1-c1ccc(C#N)cn1 [Example I-046] | 100 | 90 to 100 | 90 to 100 | 100 | 100 | – | – | – | – | – | – |
| C[C@H](NC(=O)c1cc(Cl)cc(Cl)c1)c1ncnn1-c1ccc(C#N)cn1 [Example I-047] | 100 | 90 to 100 | 90 to 100 | 100 | 100 | – | – | – | – | – | – |
| C[C@H](NC(=O)c1cc(Cl)cc(S(F)(F)(F)(F)F)c1)c1ncnn1-c1ccc(C#N)cn1 [Example I-048] | 100 | 90 to 100 | 90 to 100 | 100 | – | – | – | – | – | 100 | – |
| Cc1nc([C@H](C)NC(=O)c2cc(Cl)cc(C(F)(F)F)c2)n(-c2ccc(C#N)cn2)n1 [Example I-049] | 100 | 90 to 100 | 90 to 100 | 100 | 100 | – | 90 | 100 | 100 | 100 | – |
| C[C@H](NC(=O)c1cc(C(F)(F)F)cc(C(F)(F)F)c1)c1ncnn1-c1ccc(C#N)cn1 [Example I-052] | 100 | 90 to 100 | 90 to 100 | 100 | – | – | 90 | 100 | – | – | – |
| Cc1nc([C@H](C)NC(=O)c2cc(C(F)(F)F)cc(C(F)(F)F)c2)n(-c2ccc(C#N)cn2)n1 [Example I-056] | 100 | 90 to 100 | 90 to 100 | 100 | – | – | 90 | 100 | 100 | – | – |
